Assay results taken from patent publication US8034954B2, “Calcium channel antagonists” (Icagen, Inc., priority 2005, dated 2011).

system: T-type calcium channels; experiment: T-type calcium channel inhibitory activity (Fluo-4 FLIPR fluorescence and whole cell patch clamp); assay type: cell-based, mammalian; conditions: cells natively expressing T-type channels or HEK-293 cells expressing recombinant T-type calcium channels; fluorometric and electrophysiological methods, not distinguished in the table; read-out: Activity (inhibition of T-type calcium channels, IC50)
Method: T-type calcium channel inhibitory activity of some compounds of the invention was evaluated using both fluorometric as well as electrophysiological measurement methodologies, which are known to those skilled in the art. Fluorescence measurement of changes in intracellular calcium due to entry of calcium through T-type calcium channels was assessed using calcium sensitive fluorescent dyes Fluo-4 and Fluo-3. In brief, cells natively expressing T-type channels or HEK-293 cells transiently or stably expressing recombinant mammalian T-type calcium channels grown in 96-well tissue culture plates in DMEM/High glucose, Hyclone, Fetal Bovine Serum (10%), and 2 mM sodium pyruvate 2 mM (and for cells lines recombinantly expressing T-type calcium channels, G418@400 mg/liter) were loaded with 4 μM Fluo-4 made up in Earls Balanced Salt Solution (EBSS). After incubation for 30 minutes at room temperature, cells were washed with low calcium (0.5 mM) EBSS to remove extracellular Fluo-4. Baseline fluorescence was measured in a FLIPR (FLuorescence Image Plate Reader) (Molecular Devices Inc) after applying test compounds at desired concentration for 5-10 minutes. The effect of test compound on calcium entry was assessed by monitoring changes in Fluo-4 fluorescence following an elevation of extracellular calcium concentration from 0.5 mM to 5 mM. […] Native cells natively expressing T-type channels or HEK-293 cells transiently or stably expressing recombinant mammalian T-type calcium channels were grown in DMEM/High glucose, Hyclone, Fetal Bovine Serum (10%), 2 mM sodium pyruvate 2 mM (and for cells lines recombinantly expressing T-type calcium channels, G418@400 mg/liter) on glass coverslips in 35 mm tissue culture dishes. […] Electrical currents were measured using the whole cell configuration of the patch clamp technique (Axopatch 200B, Axon Instruments (Molecular Devices) (see Hamill et al (1981) PFugers Arch, 1981 391:85-100) using 2-2.5 MOhm resistance glass pipettes filled with 135 CsF, 5 CsCl, 5 NaCl, 5 EGTA, 10 HEPES, pH 7.3 with CsOH, Osmolarity ˜288 mOsm. Test compound effects were typically assessed under conditions in which approximately half of the available channels were inactivated either by an 8 second conditioning depolarization from a holding potential of −100 mV to a potential ranging from −70 mV to −60 mV or by continually holding the membrane potential at −70 mV. Test compounds were assessed for their ability to reduce the amplitude of the inward T-type calcium current elicited by a 100 ms step depolarization −20 or −30 mV.

IC50 | Compound
1 to 1000 nM | CCOc1cccc(S(=O)(=O)c2cnc(Nc3cc(NCC[C@H]4CCNC4)nc(C)n3)s2)c1 [Example 10, N-[5-(3-ethoxy-benzenesulfonyl)-thiazol-2-yl]-2-methyl-N′-(R)-(pyrrolidin-3-yl-ethyl)-pyrimidine-4,6-diamine]
1 to 1000 nM | CCOc1cccc(S(=O)(=O)c2cnc(Nc3cc(OC[C@H]4CCCN4)nc(C)n3)s2)c1 [Example 21, N-[5-(3-ethoxy-benzenesulfonyl)-thiazol-2-yl]-[2-methyl-((6R)-1-pyrrolidin-2-yl-methoxy)pyrimidin-4-yl]-amine]
1 to 1000 nM | CCOc1cccc(S(=O)(=O)c2cnc(Nc3cc(OCCN(C)C)nc(C(F)(F)F)n3)s2)c1 [Example 28, [6-(2-Dimethylamino-ethoxy)-2-trifluormethyl-pyrimidin-4-yl]-[5-(3-Ethoxy-benzenesulfonyl)-thiazol-2-yl]-amine]
1 to 1000 nM | [5-(3-Ethoxy-benzenesulfonyl)-thiazol-2-yl]-[6-(3-methylamino)propyl)-2-methyl-pyrimidin-4-yl]-amine [Example 35]
